Assay results reported in patent US5190753A, “3-phenyl-5,6-dihydrobenziciacridine-7-carboxylic acids and related compounds as immunosuppressive agents” (Du Pont Merck Pharmaceutical Company, priority 1992, dated 1993).

Assays:
[1] = tested on: human mixed lymphocyte reaction (peripheral blood mononuclear cells, PBMC); assay: Human mixed lymphocyte reaction (3H-thymidine incorporation); assay type: cell-based
Method: Blood was obtained by venipuncture from two nonrelated human donors. Peripheral blood mononuclear cells (PBMC) were isolated from these samples by using the Leuco Prep procedure (Becton-Dickinson). PBMC were washed twice in phosphate buffered saline (without calcium and magnesium) and the separate cell isolations were adjusted to the appropriate concentrations in media (RPMI 1640) supplemented with 10% human AB serum and […] gentamicin. Cells from donor A (2×10^5) were incubated with cells from donor B (2×10^5) in 96 well round bottom microliter plates at 37° C., 5% CO2 for 6 days. Eighteen hours prior to harvesting cells from the plates, all wells were pulsed with 1 μCi of ^3 H-thymidine. Cells from the plates were harvested on day-6 and 3H-thymidine incorporation was determined using a scintillation counter.
The human mixed lymphocyte reaction model, is an in vitro model for transplantation rejection.

[2] = tested on: contact sensitivity response to 2,4-dinitrofluorobenzene (DNFB) in Balb/c female mice; assay: Contact sensitivity response to DNFB in mice (delayed-type hypersensitivity, ear swelling); assay type: in vivo
Method: Balb/c female mice (.perspectiveto. 20 g; Charles River) were sensitized on the shaved abdomen with 25 μl of 0.5% 2,4-dinitrofluorobenzene (DNFB, Eastman Kodak Co.) in a vehicle of 4:1 acetone:olive oil on days 0 and 1. Mice were ear challenged with 20 μl of 0.2% DNFB in a vehicle of 4:1 acetone:olive oil on day-5. An identical segment of the ear was measured immediately before challenge and 24 hours later with an engineer's micrometer. Ear swelling was expressed as the difference in ear thickness before and after challenge in units of 10^-4 inches ± SEM. Percent suppression was calculated as: [formula] Compounds were administered orally from day-2 through day-6 and were prepared in 0.25% Methocel® (Dow Chemical Co.). Control animals received only vehicle (0.25% Methocel®). Negative controls were not sensitized on days 0 and 1 but were ear challenged on day-5. Ten mice were used per group.
Contact sensitivity to DNFB is a form of delayed-type hypersensitivity which has been extensively studied to gain an understanding of the regulation of immunologic processes (Claman et al. (1980), Immunological Rev. 50:105-132). This reaction is mediated by T lymphocytes that become sensitized to antigen by proliferating and developing into mature effector cells (Claman et al. (1980), Immunological Rev. 50:105-132). This cell-mediated immune response (T-cell mediated immunity) is central to many disease states such as organ transplantation rejection and graft versus host disease (Benacerraf and Unanue (1979), Textbook of Immunology, Williams & Wilkins Co.; Eisen (1980), Immunology, An Introduction to Molecular and Cellular Principles of the Immune Responses, Harper & Row, Inc.; Loveland and McKenzie (1982), Immunology 46:313-320; Gallin et al. (1988), Inflammation, Basic Principles and Clinical Correlates, Raven Press). […]

[3] = clinical use; cited from earlier work

| Compound | IC50 ([1]; Homo sapiens, Lymphocyte, 6 days incubation, 3H-thymidine pulse 18 hours prior to harvest) [µM] | human mixed lymphocyte reaction (in words) ([1]; statement in words, compared with CSA) | % Suppression ([2]; 20.0 mg/kg orally, day-2 through day-6, of ear swelling) [%] | Ear Swelling (increase in ear thickness from day 5 to day 6) ([2]; 20.0 mg/kg orally, day-2 through day-6, units ± SEM, ten mice per group, 24 hours after challenge) | immunosuppressive activity (in words) ([2]; statement in words) | Significant clinically observed toxicities [3] |
| --- | --- | --- | --- | --- | --- | --- |
| O=C([O-])c1c2c(nc3ccc(F)cc13)-c1ccc(-c3ccccc3)cc1CC2.[Na+] [Example 12, 5,6-dihydro-9-fluoro-3-phenylbenz-[c]acridine-7-carboxylic acid, sodium salt] | 0.065 | comparable to CSA | 99.75 | 2.44 ± 1.62 10^-4 inches | have immunosuppressive activity | – |
| Cn1cnc([N+](=O)[O-])c1Sc1ncnc2nc[nH]c12 [azathioprine] | – | – | – | – | – | hepatoxicity |
